Experimental data taken from publication PMC12080345 (Journal of medicinal chemistry, 2023).

Assay: Acute toxicity assay in mice
Assay type: in vivo
Conditions: 200 mg/kg

## COc1cc(Cn2ccc3cc(C(=O)NCC45C[C@H]6C[C@@H](C4)C[C@@H](C5)C6)ccc32)ccc1C(=O)NO [4e, N-(((3r,5r,7r)-Adamantan-1-yl)methyl)-1-(4-(hydroxycarbamoyl)-3-methoxybenzyl)-1H-indole-5-carboxamide]
  adverse effect: no observed adverse effect
